Laboratory results from patent US9950002B2, “Nanoparticles/theranostic vehicles” (Regents of the University of Minnesota, priority 2013, dated 2018).

Test system: BBMVE cell monolayer challenged with DutchAβ40
Assay: Cytokines inhibition study (IL-6, IL-1β, TNF-α ELISA)
Assay type: cell-based, bovine
Conditions: 24 hr; TNV=1.74 mg/ml, DutchAβ40=25 μg/ml, cyclophosphamide=3.05 mg/ml
Protocol: At the end of 24 hour treatment, the luminal or abluminal solutions of the control and the treated Transwells® was assayed for IL-6, IL-1β and TNF-α using cytokine enzyme linked immunosorbent assay (ELISA) kit (Thermo Scientific, Rockford, Ill.). The cytokine levels secreted by the control BBMVE cell monolayer incubated with hanks balanced salt solution (HBSS) were used as the baseline values.

O=P1(N(CCCl)CCCl)NCCCO1 (stereo not shown) [cyclophosphamide]
secretion of IL-6, IL-1β and TNF-α triggered by DutchAβ40, luminal side: significant decrease
